Biological target: Complement factor D (Homo sapiens, UniProt P00746)
Test: Factor D Assay: Human Factor D (purified from human serum, Complement Technology, Inc.) at 80 nM final concentration is incubated with test compound at various concentrations for 5 min at room temperature in 50 mM Tris, 1M NaCl, pH 7.5. A synthetic substrate Z-L-Lys-SBz and DTNB (Ellman's reagent) are added to final concentrations of 100 μM each. Absorbance at 405 nm (A405) is recorded at 30 second intervals for 30 min using a microplate spectrophotometer. IC50 values are calculated by nonlinear regression of complement Factor D reaction rates as a function of test compound concentration.

Sequence of Complement factor D (P00746 whole entry): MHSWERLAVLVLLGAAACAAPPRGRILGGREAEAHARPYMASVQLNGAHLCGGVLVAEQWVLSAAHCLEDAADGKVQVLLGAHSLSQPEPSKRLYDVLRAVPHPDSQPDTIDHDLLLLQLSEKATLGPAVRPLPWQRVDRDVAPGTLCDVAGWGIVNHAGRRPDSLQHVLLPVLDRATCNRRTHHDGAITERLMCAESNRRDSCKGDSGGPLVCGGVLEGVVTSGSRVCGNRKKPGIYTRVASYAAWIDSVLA

`CC(=O)c1nn(CC(=O)N2[C@H](C(=O)NCCC3CCCCC3)C[C@@]3(C)C[C@@H]23)c2c(C)cc(-c3cnc(C)nc3)cc12` and `CC(=O)c1nn(CC(=O)N2[C@H](C(=O)NCC3CC3)C[C@@]3(C)C[C@@H]23)c2c(C)cc(-c3cnc(C)nc3)cc12` cannot be ordered by IC50: < 1000 nM for the first, < 1000 nM for the second.

`CCCNC(=O)[C@@H]1C[C@@]2(C)C[C@H]2N1C(=O)Cn1nc(C(C)=O)c2cc(-c3cnc(C)nc3)ccc21` and `CCCCCNC(=O)[C@@H]1C[C@@]2(C)C[C@H]2N1C(=O)Cn1nc(C(C)=O)c2cc(-c3cnc(C)nc3)ccc21` cannot be ordered by IC50: < 1000 nM for the first, < 1000 nM for the second.

`COc1ccccc1CNC(=O)[C@@H]1C[C@@]2(C)C[C@H]2N1C(=O)Cn1nc(C(C)=O)c2cc(-c3cnc(C)nc3)cc(C)c21` and `CC(=O)c1nn(CC(=O)N2[C@H](C(=O)NCc3ccccc3C)C[C@@]3(C)C[C@@H]23)c2c(C)cc(-c3cnc(C)nc3)cc12` cannot be ordered by IC50: < 1000 nM for the first, < 1000 nM for the second.

`CC(=O)c1nn(CC(=O)N2[C@H](C(=O)Nc3nc(Br)ccc3C(O)CO)C[C@@]3(C)C[C@@H]23)c2cnc(-c3cnc(C)nc3)cc12` (stereo not given in full) and `CC(=O)c1nn(CC(=O)N2[C@H](C(=O)Nc3nc(Br)ccc3F)C[C@@]3(C)C[C@@H]23)c2cnc(-c3cnc(C)nc3)cc12` cannot be ordered by IC50: < 1000 nM for the first, < 1000 nM for the second.

`CC(=O)c1nn(CC(=O)N2[C@H](C(=O)N[C@H](C)[C@H]3CC3(Cl)Cl)C[C@@]3(C)C[C@@H]23)c2cnc(-c3cnc(C)nc3)cc12` and `CC(=O)c1nn(CC(=O)N2[C@H](C(=O)Nc3cncc(Br)n3)C[C@@]3(C)C[C@@H]23)c2cnc(-c3cnc(C)nc3)cc12` cannot be ordered by IC50: < 1000 nM for the first, < 1000 nM for the second.

`CC(=O)c1nn(CC(=O)N2[C@H](C(=O)NCc3cncnc3)C[C@@]3(C)C[C@@H]23)c2c(C)cc(-c3cnc(C)nc3)cc12` and `CC(=O)c1nn(CC(=O)N2[C@H](C(=O)NCc3ccncc3)C[C@@]3(C)C[C@@H]23)c2c(C)cc(-c3cnc(C)nc3)cc12` cannot be ordered by IC50: < 1000 nM for the first, < 1000 nM for the second.

`CC(=O)c1nn(CC(=O)N2[C@H](C(=O)NCc3ccccc3F)C[C@@]3(C)C[C@@H]23)c2c(C)cc(-c3cnc(C)nc3)cc12` and `CC(=O)c1nn(CC(=O)N2[C@H](C(=O)NCc3ccc(F)cc3)C[C@@]3(C)C[C@@H]23)c2c(C)cc(-c3cnc(C)nc3)cc12` cannot be ordered by IC50: < 1000 nM for the first, < 1000 nM for the second.

`CC(=O)c1nn(CC(=O)N2[C@H](C(=O)Nc3nc(Br)ccc3C)C[C@@]3(CCF)C[C@@H]23)c2cnc(-c3cnc(C)nc3)cc12` and `CCC[C@@]12C[C@@H](C(=O)Nc3nc(Br)ccc3C)N(C(=O)Cn3nc(C(C)=O)c4cc(-c5cnc(C)nc5)ncc43)[C@@H]1C2` cannot be ordered by IC50: < 1000 nM for the first, < 1000 nM for the second.

`COC[C@@]12C[C@@H](C(=O)Nc3nc(Br)ccc3C)N(C(=O)Cn3nc(C(C)=O)c4cc(-c5cnc(C)nc5)ncc43)[C@@H]1C2` and `CC(=O)c1nn(CC(=O)N2[C@H](C(=O)Nc3nc(Br)ccc3C)C[C@@]3(CC(F)F)C[C@@H]23)c2cnc(-c3cnc(C)nc3)cc12` cannot be ordered by IC50: < 1000 nM for the first, < 1000 nM for the second.

`CC(=O)c1nn(CC(=O)N2[C@H](C(=O)N[C@@H](C)c3ccccc3)C[C@@]3(C)C[C@@H]23)c2c(C)cc(-c3cnc(C)nc3)cc12` and `CC(=O)c1nn(CC(=O)N2[C@H](C(=O)NCC(C)C)C[C@@]3(C)C[C@@H]23)c2c(C)cc(-c3cnc(C)nc3)cc12` cannot be ordered by IC50: < 1000 nM for the first, < 1000 nM for the second.

`CC(=O)c1nn(CC(=O)N2[C@H](C(=O)Nc3nc(Br)ccc3C)C[C@@]3(CF)C[C@@H]23)c2c(C)cc(-c3cnc(C)nc3)cc12` and `CC(=O)c1nn(CC(=O)N2[C@H](C(=O)Nc3nc(Br)ccc3C)C[C@@]3(CNCc4ccccc4F)C[C@@H]23)c2c(C)cc(-c3cnc(C)nc3)cc12` cannot be ordered by IC50: < 1000 nM for the first, < 1000 nM for the second.

`CC(=O)c1nn(CC(=O)N2[C@H](C(=O)Nc3nc(Br)ccc3C)C[C@@]3(Cn4cc(C5CC5)nn4)C[C@@H]23)c2cnc(-c3cnc(C)nc3)cc12` and `CC(=O)c1nn(CC(=O)N2[C@H](C(=O)Nc3nc(Br)ccc3C)C[C@@]3(/C=N/O)C[C@@H]23)c2cnc(-c3cnc(C)nc3)cc12` cannot be ordered by IC50: < 1000 nM for the first, < 1000 nM for the second.

`CC(=O)c1nn(CC(=O)N2[C@H](C(=O)Nc3cccc(Br)n3)C[C@@]3(C)C[C@@H]23)c2ccc(-c3cnc(OC4CS(=O)(=O)C4)nc3)cc12` and `CC(=O)c1nn(CC(=O)N2[C@H](C(=O)Nc3nc(Br)ccc3C)C[C@@]3(C)C[C@@H]23)c2ccc(-c3cnc(OC4CS(=O)(=O)C4)nc3)cc12` cannot be ordered by IC50: < 1000 nM for the first, < 1000 nM for the second.

`CC(=O)c1nn(CC(=O)N2[C@H](C(=O)NCc3cccnn3)C[C@@]3(C)C[C@@H]23)c2c(C)cc(-c3cnc(C)nc3)cc12` and `CCCNC(=O)[C@@H]1C[C@@]2(C)C[C@H]2N1C(=O)Cn1nc(C(C)=O)c2cc(-c3cnc(C)nc3)cc(C)c21` cannot be ordered by IC50: < 1000 nM for the first, < 1000 nM for the second.

`CC(=O)c1nn(CC(=O)N2[C@H](C(=O)Nc3nc(Br)ccc3C)C[C@@]3(C)C[C@@H]23)c2ccc(-c3cnc(O)nc3)cc12` and `CNC(=O)c1nn(CC(=O)N2[C@H](C(=O)Nc3nc(Br)ccc3C)C[C@@]3(C)C[C@@H]23)c2ccc(-c3cnc(C)nc3)cc12` cannot be ordered by IC50: < 1000 nM for the first, < 1000 nM for the second.

Compared with `Cc1ncc(-c2cc(C)c3c(c2)c(I)nn3CC(=O)N2[C@H](C(=O)Nc3nc(Br)ccc3C)C[C@@]3(C)C[C@@H]23)cn1`, `Cc1ncc(-c2ccc3c(c2)c(C(=O)NC(C)(C)C)nn3CC(=O)N2[C@H](C(=O)Nc3nc(Br)ccc3C)C[C@@]3(C)C[C@@H]23)cn1` is higher in IC50: < 1000 nM for the first, > 10000 nM for the second.

`CC(=O)c1cn(CC(=O)N2[C@H](C(=O)Nc3nc(Br)ccc3C)C[C@@]3(C)C[C@@H]23)c2cnc(-c3cnc(C)nc3)cc12` and `CC(=O)c1nn(CC(=O)N2[C@H](C(=O)Nc3nc(C(F)(F)F)ccc3C)C[C@@]3(C)C[C@@H]23)c2cnc(-c3cnc(C)nc3)cc12` cannot be ordered by IC50: < 1000 nM for the first, < 1000 nM for the second.

`CC(=O)c1nn(CC(=O)N2[C@H](C(=O)Nc3nc(Br)ccc3C)C[C@@]3(CN(C)C)C[C@@H]23)c2c(C)nc(-c3cnc(C)nc3)cc12` and `CC(=O)c1nn(CC(=O)N2[C@H](C(=O)Nc3nc(Br)ccc3C)C[C@@]3(CN4CCC4)C[C@@H]23)c2c(C)nc(-c3cnc(C)nc3)cc12` cannot be ordered by IC50: < 1000 nM for the first, < 1000 nM for the second.

`CC(=O)c1nn(CC(=O)N2[C@H](C(=O)Nc3nc(Br)ccc3CN3CCC(C)(F)CC3)C[C@@]3(C)C[C@@H]23)c2cnc(-c3cnc(C)nc3)cc12` and `CC(=O)c1nn(CC(=O)N2[C@H](C(=O)Nc3nc(Br)ccc3C)C[C@@]3(CN4CCCC4)C[C@@H]23)c2c(C)nc(-c3cnc(C)nc3)cc12` cannot be ordered by IC50: < 1000 nM for the first, < 1000 nM for the second.

`C=CCCc1cc(-c2cnc(C)nc2)cc2c(C(C)=O)nn(CC(=O)N3[C@H](C(=O)Nc4nc(Br)ccc4C)C[C@@]4(COCC=C)C[C@@H]34)c12` and `COCc1ccc(Br)nc1NC(=O)[C@@H]1C[C@@]2(CNC(C)=O)C[C@H]2N1C(=O)Cn1nc(C(C)=O)c2cc(-c3cnc(C)nc3)ccc21` cannot be ordered by IC50: < 1000 nM for the first, < 1000 nM for the second.

`CC(=O)c1nn(CC(=O)N2[C@H](C(=O)Nc3nc(Br)ccc3C)C[C@@]3(CNC(=O)C4CCCC4(F)F)C[C@@H]23)c2ccc(-c3cnc(C)nc3)cc12` (stereo not given in full) and `CC(=O)c1nn(CC(=O)N2[C@H](C(=O)NCC(C)(C)C)C[C@@]3(C)C[C@@H]23)c2ccc(-c3cnc(C)nc3)cc12` cannot be ordered by IC50: < 1000 nM for the first, < 1000 nM for the second.

`CC(=O)c1nn(CC(=O)N2[C@H](C(=O)Nc3nc(OC(F)(F)F)ccc3C)C[C@@]3(C)C[C@@H]23)c2c(C)nc(-c3cnc(C)nc3)cc12` and `COc1ncc(-c2cc3c(C(C)=O)nn(CC(=O)N4[C@H](C(=O)Nc5nc(Br)ccc5C)C[C@@]5(C)C[C@@H]45)c3c(C)n2)cn1` cannot be ordered by IC50: < 1000 nM for the first, < 1000 nM for the second.

In the case of `CC(=O)c1nn(CC(=O)N2[C@H](C(=O)Nc3cc(F)cc(Br)n3)C[C@@]3(C)C[C@@H]23)c2c(C)nc(-c3cnc(C)nc3)cc12`, the IC50 is reported as < 1000 nM.
